Experimental data from patent US20150166505A1, “PYRIDINYL-SUBSTITUTED PYRAZOLYL CARBOXAMIDES” (GRÜNENTHAL GMBH, priority 2013, published 2015).
Converted amounts (≈) assume the structure as drawn. Where a name gives a salt, the structure may show the parent alone. Read-outs that look alike come from different tables or passages of the source.

Key:
[1] = Nephelometric Solubility Measurement; assay type: physicochemical; settings: aqueous buffer, kinetic from dmso stock; phosphate buffered saline pH 7.4, 37° C., incubation 2 minutes
Experimental: Nephelometric Solubility Measurement
BMG Labtech Nephelostar (S/N 504-0167), 37° C.; Gain: 100; Laser Beam Focus 1.5 mm; Laser intensity 80%; measurement time/well 0.1 s; positioning delay 0.1 s; data analysis: BMG Labtech MARS software
Measurements with BMG Labtech Nephelostar performed though addition of DMSO stock solutions of compound (2, 5, 10, 20, 30, 40, 50, 60, 80, 100 [μg/mL]) into phosphate buffered saline (pH 7.4, purchased from Invitrogen, catalogue number 10010-056); incubation time: 2 minutes [blank measurement contains DMSO (2.5 μL) and buffered saline (47.5 μL)]; Detection of insoluble particles in liquid samples was performed by measuring forward scattered light.

[2] = molecular target: T1, CRAC channel (endogenous SOC in HEK293 cells) (Homo sapiens, UniProt Q96D31); assay: HEK Calcium Influx Assay (FLIPR); assay type: cell-based
T1 construct: endogenous in cells; host or cells: HEK293 (ECACC)
Experimental: The effect of compounds of the invention on intracellular [Ca^2+] was tested in the HEK293 cell line (ECACC). HEK293 cells were cultured in DMEM/F12/Glutamax (Gibco) containing 10% FCS (Gibco), and maintained at 37° C., 5% CO2. Cell were split twice a week [3*10^6 (Mon-Thu) and 1*10^6 (Thu-Mon) cells/50 ml medium in T-175 ZK culture flasks, respectively]. Twenty four hours pre-experiment, cells were seeded on 96 well plates (Poly-D-Lysine 96well Black/Clear Plate, BD Biocoat REF 356640) at a density of 40,000 cells/well in DMEM/F12 (Gibco) containing 10% FCS (Gibco), and maintained at 37° C., 5% CO2. Prior to store-depletion, cell culture medium was removed and cells were loaded with the a Calcium-sensitive fluorescent dye comprised within the Calcium-4-assay kit (Molecular Devices) in nominally Ca^2+-free HBS buffer (140 mM NaCl, 4 mM KCl, 0.2 mM MgCl2, 11 mM D-glucose, and 10 mM HEPES, pH 7.4) according to manufacturer's instruction for 60 min at 37° C., 5% CO2. Passive depletion of intracellular Ca^2+-stores was then triggered by employing the SERCA inhibitor thapsigargin (2 μM final) for 10 min in the dark (RT). To prevent immediate Ca^2+-entry via the activated Store-operated channels (SOCs), cells were maintained in Ca^2+-free HBS buffer comprising 100 μM EGTA during store-depletion. Intracellular changes in [Ca^2+] were subsequently monitored with the FLIPR device (Molecular Devices). In brief, baseline imaging post-store depletion was allowed for 1 min before adjusting the extracellular buffer to 3 mM CaCl2. Increases in intracellular [Ca^2+] due to pre-activated SOC channels were monitored for 15 min until intracellular Ca^2+ levels had declined into a steady-state. Finally, compounds were administered and Ca^2+ signals were recorded for additional 10 min. Inhibition of endogenous SOC in HEK293 cells was quantified employing the average Ca^2+ signal measured from 9.5-10 min post-administration. Zero percent inhibition (MAX) was defined as the Ca^2+ signal recorded from wells to which DMSO-only had been added instead of compound. Hundred percent inhibition (MIN) was defined as the signal obtained from wells in which cells haven't been treated with TG prior to Ca^2+ addition and to which DMSO-only had been added instead of compound. For routine IC50 determinations of compounds, 8 concentrations of a serial dilution (1:3.16) were tested, starting off from 10 μM. Reliable IC50's could consequently be determined only, if they were at least sub 2.5-3 μM.

[3] = tested on: Interleukin-2 (IL-2) production/release in Jurkat T cell line; assay: Jurkat IL-2 Production Assay; assay type: cell-based; settings: Homo sapiens; Jurkat T cells, PHA stimulation 22 hours
Experimental: Jurkat IL-2 Production Assay
The effect of compounds of the invention on Interleukin-2 (IL-2) production/release was tested in the Jurkat T cell line (ECACC) clone E6-1. Jurkat T cells were cultured in DMEM/F12/Glutamax (Gibco) containing 10% FCS (Gibco), and maintained at 37° C., 5% CO2. Cell were split twice a week [5*10^6 (Mon-Thu) and 1*10^7 (Thu-Mon) cells/50 ml medium in T-175 ZK culture flasks, respectively]. Prior to experiment, cells were seeded on 96 well plates (Cellstar 96 Well; Cat No. 655180, Greiner bio-one) at a density of 5*10^5 cells/well in DMEM/F12/Glutamax (Gibco) containing 10% FCS (Gibco), and incubated for 60 min at 37° C., 5% CO2. Subsequently, compounds were added and cells were allowed to incubate for 30 min at 37° C., 5% CO2. Cells were then stimulated with 15 μg/ml Phytohemagglutinin (PHA; Sigma) for 22 hours at 37° C., 5% CO2. Before sampling of the supernatants, cells were spun down (200*g/5 min/RT). The amount of IL-2 released into the supernatant was quantified with the human IL-2 AlphaLisa kit (Perkin Elmer) according to manufacturer's instructions. Luminescence proximity measurements were carried out in the Synergy H4 reader (BioTek) employing the fluorescence setting of the reader (ex: 680/30 nm; em: 620/40 nm). Inhibition of IL-production/release in/from Jurkat T cells was quantified as follows: Zero percent inhibition (MAX) was defined as the [IL-2] determined in supernatants derived from cells to which PHA & DMSO-only had been added instead of compound. Hundred percent inhibition (MIN) was defined as the [IL-2] determined in supernatants derived from cells that had been pre-treated with 1 μM CyclosporineA (Sigma) before the addition of 15 μg/ml PHA. For routine IC50 determinations of compounds, 8 concentrations of a serial dilution (1:3.16) were tested, starting off from 10 μM.

[4] = thapsigargin store depletion, read-out: % inhib. [@ 10 μM] FLIPR

T1 sequence (Q96D31 whole entry): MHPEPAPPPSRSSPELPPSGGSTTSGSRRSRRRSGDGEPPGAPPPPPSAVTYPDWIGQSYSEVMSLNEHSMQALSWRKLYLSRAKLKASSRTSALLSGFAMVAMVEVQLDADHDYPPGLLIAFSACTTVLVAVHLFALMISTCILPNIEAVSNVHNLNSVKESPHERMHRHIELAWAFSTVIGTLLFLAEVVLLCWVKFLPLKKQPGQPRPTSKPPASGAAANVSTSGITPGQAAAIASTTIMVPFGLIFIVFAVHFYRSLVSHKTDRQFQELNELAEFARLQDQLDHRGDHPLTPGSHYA

Structure (SMILES) | solubility at 2 min [1] [µM] | inhibition at 10 µM [2, 4] [%] | IC50 [3] [µM] | inhibition at 10 µM ([2]; numeric values of Table 2, read-out: inhib. [@ 10 μM] FLIPR) [%]
CCOc1cc(C)c(-c2ccc(NC(=O)c3c(F)cccc3F)cc2)cn1 [Comparative example #3, reference compound] | < 14 |  |  | 
COc1cc(OC)c(-c2ccc(NC(=O)c3c(F)cccc3F)cc2)cn1 [Comparative example #4, reference compound] | 38.8 (≈ 14.4 µg/mL) |  |  | 
COc1ncc(-c2nn(C)c(=O)o2)cc1-c1ccc(NC(=O)c2c(F)cccc2F)cc1 [Comparative example #5, reference compound] | < 11 |  |  | 
CCOc1cc(OC2COC2)c(-c2cc(C(=O)Nc3c(F)cccc3F)nn2C)cn1 [Example 49, N-(2,6-Difluoro-phenyl)-5-[6-ethoxy-4-(oxetan-3-yloxy)-pyridin-3-yl]-1-methyl-1H-pyrazole-3-carboxylic acid amide] |  | 50 to 70 | 1 to 5 | 
COc1cc(OCC2COC2)ncc1-c1cc(C(=O)Nc2c(F)cccc2F)nn1C [Example 51, N-(2,6-Difluoro-phenyl)-5-[4-methoxy-6-(oxetan-3-yl-methoxy)-pyridin-3-yl]-1-methyl-1H-pyrazole-3-carboxylic acid amide] |  | 50 to 70 | 1 to 5 | 
COc1cc(OC)c(-c2c(Cl)c(C(=O)Nc3c(F)cccc3F)nn2C)cn1 [Example 57, 4-Chloro-N-(2,6-difluoro-phenyl)-5-(4,6-dimethoxy-pyridin-3-yl)-1-methyl-1H-pyrazole-3-carboxylic acid amide] |  | > 70 | 1 to 5 | 
COc1cc(OC)c(-c2c(C)c(C(=O)Nc3c(F)cccc3F)nn2C)cn1 [Example 64, N-(2,6-Difluoro-phenyl)-5-(4,6-dimethoxy-pyridin-3-yl)-1,4-dimethyl-1H-pyrazole-3-carboxylic acid amide] |  | > 70 | 1 to 5 | 
COc1cc(OC)c(-c2c(C)c(C(=O)Nc3c(F)cncc3F)nn2C)cn1 [Example 65, N-(3,5-Difluoro-pyridin-4-yl)-5-(4,6-dimethoxy-pyridin-3-yl)-1,4-dimethyl-1H-pyrazole-3-carboxylic acid amide] |  | > 70 | 1 to 5 | 
COc1cc(OC)c(-c2c(C)c(C(=O)Nc3cnc(C)cc3C)nn2C)cn1 [Example 66, 5-(4,6-Dimethoxy-pyridin-3-yl)-N-(4,6-dimethyl-pyridin-3-yl)-1,4-dimethyl-1H-pyrazole-3-carboxylic acid amide] |  | 50 to 70 | 1 to 5 | 
COc1cc(OC)c(-c2c(C)c(C(=O)Nc3cncc(F)c3C)nn2C)cn1 [Example 67, 5-(4,6-Dimethoxy-pyridin-3-yl)-N-(5-fluoro-4-methyl-pyridin-3-yl)-1,4-dimethyl-1H-pyrazole-3-carboxylic acid amide] |  | > 70 | 1 to 5 | 
CCOc1cc(OC)c(-c2cc(C(=O)Nc3c(F)cccc3F)n[nH]2)cn1 [Example 68, N-(2,6-Difluoro-phenyl)-5-(6-ethoxy-4-methoxy-pyridin-3-yl)-1H-pyrazole-3-carboxylic acid amide hydrochloride] |  | > 70 | 1 to 5 | 
COc1cc(OC)c(-c2cc(C(=O)Nc3c(F)cccc3F)n[nH]2)cn1 [Example 69, N-(2,6-Difluoro-phenyl)-5-(4,6-dimethoxy-pyridin-3-yl)-1H-pyrazole-3-carboxylic acid amide hydrochloride] |  | > 70 | 1 to 5 | 

More lines, now with the values ahead:

solubility at 2 min [1] [µM] | inhibition at 10 µM [2, 4] [%] | IC50 [3] [µM] | inhibition at 10 µM ([2]; numeric values of Table 2, read-out: inhib. [@ 10 μM] FLIPR) [%] | Structure (SMILES)
 | > 70 | 0.5 to 1 |  | Cn1nc(C(=O)Nc2c(F)cccc2F)cc1-c1cnc(C2CC2)cc1C(F)(F)F [Example 48, 5-[6-Cyclopropyl-4-(trifluoromethyl)-pyridin-3-yl]-N-(2,6-difluoro-phenyl)-1-methyl-1H-pyrazole-3-carboxylic acid amide]
 | > 70 | < 0.5 |  | COc1cc(C2CC2)ncc1-c1cc(C(=O)Nc2c(F)cccc2F)nn1C [Example 54, 5-(6-Cyclopropyl-4-methoxy-pyridin-3-yl)-N-(2,6-difluoro-phenyl)-1-methyl-1H-pyrazole-3-carboxylic acid amide]
 | > 70 | < 0.5 |  | COc1cc(OCC2CCC2)ncc1-c1cc(C(=O)Nc2c(F)cccc2F)nn1C [Example 55, 5-[6-(Cyclobutyl-methoxy)-4-methoxy-pyridin-3-yl]-N-(2,6-difluoro-phenyl)-1-methyl-1H-pyrazole-3-carboxylic acid amide]
 | > 70 | 0.5 to 1 |  | COc1cc(Cl)c(-c2cc(C(=O)Nc3c(F)cccc3F)nn2C)cn1 [Example 56, 5-(4-Chloro-6-methoxy-pyridin-3-yl)-N-(2,6-difluoro-phenyl)-1-methyl-1H-pyrazole-3-carboxylic acid amide]
 | > 70 | 0.5 to 1 | 100 | Cc1cc(C(F)(F)F)ncc1-c1cc(C(=O)Nc2c(F)cccc2F)nn1C [Example 60, N-(2,6-Difluoro-phenyl)-1-methyl-5-[4-methyl-6-(trifluoromethyl)-pyridin-3-yl]-1H-pyrazole-3-carboxylic acid amide]
 | > 70 | < 0.5 |  | COc1cc(OC2CC2)ncc1-c1cc(C(=O)Nc2c(F)cccc2F)nn1C [Example 61, 5-(6-Cyclopropyloxy-4-methoxy-pyridin-3-yl)-N-(2,6-difluoro-phenyl)-1-methyl-1H-pyrazole-3-carboxylic acid amide]
 | 50 to 70 | 1 to 5 |  | COc1cc(OC2COC2)ncc1-c1cc(C(=O)Nc2c(F)cccc2F)nn1C [Example 62, N-(2,6-Difluoro-phenyl)-5-[4-methoxy-6-(oxetan-3-yloxy)-pyridin-3-yl]-1-methyl-1H-pyrazole-3-carboxylic acid amide]
 | > 70 | 1 to 5 |  | Cn1nc(C(=O)Nc2c(F)cncc2F)cc1-c1cnc(C2CC2)cc1C(F)(F)F [Example 63, 5-[6-Cyclopropyl-4-(trifluoromethyl)-pyridin-3-yl]-N-(3,5-difluoro-pyridin-4-yl)-1-methyl-1H-pyrazole-3-carboxylic acid amide]
